Laboratory results taken from patent US20060166316A1, “Phosphodiesterase 10a7 isoforms and methods of use” (Memory Pharmaceuticals Corporation, priority 2003, published 2006).

Tests used:
[1] = target: T1, mmPDE10A7 (Mus musculus, UniProt Q8CA95, M75I); test: Km determination with [3H]-cAMP/cAMP or [3H]-cGMP/cGMP; assay type: biochemical; details: substrate of mmPDE10A7; 30 minutes at room temperature, pH 8.0
T1 construct: Full-length mmPDE10A7 cDNA cloned in the pENTR vector was recombined to pDEST™8; made in house; host or cells: Sf9 insect cells (baculovirus, pDEST8 / DH10BAC); used as crude cell lysate supernatant, dialysed for IMAP
T1 sequence (Q8CA95 with tags, fused parts or gaps M75I): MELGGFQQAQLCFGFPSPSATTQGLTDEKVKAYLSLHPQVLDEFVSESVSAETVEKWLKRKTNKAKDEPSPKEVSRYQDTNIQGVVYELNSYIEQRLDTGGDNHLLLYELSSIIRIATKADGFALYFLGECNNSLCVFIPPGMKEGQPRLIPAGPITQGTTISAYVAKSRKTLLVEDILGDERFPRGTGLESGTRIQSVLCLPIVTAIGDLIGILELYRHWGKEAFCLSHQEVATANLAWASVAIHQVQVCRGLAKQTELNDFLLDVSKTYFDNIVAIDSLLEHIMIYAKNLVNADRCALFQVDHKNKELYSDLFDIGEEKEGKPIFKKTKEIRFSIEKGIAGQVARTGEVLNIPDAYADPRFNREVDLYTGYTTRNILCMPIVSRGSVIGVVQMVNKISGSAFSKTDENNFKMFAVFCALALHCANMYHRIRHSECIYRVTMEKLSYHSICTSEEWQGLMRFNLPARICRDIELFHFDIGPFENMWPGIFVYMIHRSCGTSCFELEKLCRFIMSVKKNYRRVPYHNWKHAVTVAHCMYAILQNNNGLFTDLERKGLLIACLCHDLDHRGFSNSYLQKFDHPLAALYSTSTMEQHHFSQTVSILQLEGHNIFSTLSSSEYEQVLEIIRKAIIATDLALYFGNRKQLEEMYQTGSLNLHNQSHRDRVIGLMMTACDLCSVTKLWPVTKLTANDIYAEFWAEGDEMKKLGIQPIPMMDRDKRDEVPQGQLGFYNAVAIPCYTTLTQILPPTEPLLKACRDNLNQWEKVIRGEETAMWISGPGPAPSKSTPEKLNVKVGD
Source text: (§1) Full-length mmPDE10A7 cDNA cloned in the pENTR vector was recombined to pDEST™8 by clonase in DH5α competent bacteria (Invitrogen). DH10BAC, the competent bacteria containing baculovirus genome, was then transformed with the pDEST™8-mmPDE10A7. The white colonies were selected in the presence of gentamicin, kanamycin, tetracycline, Bluogal and IPTG and were confirmed by PCR. Log-phase sf9 cells were then transfected with recombinant baculovirus DNA by the method of Cellfectin in a 6-well plate. Forty-eight to seventy-two hours after the transfection, 0.5 ml medium from the transfected cell plate was added into a 175-cm^2 flask containing 2×10^7 sf9 cells for further amplification of the recombinant baculovirus. The sf9 cells were collected 48 hours after infection.
(§2) To prepare the cell lysate, the sf9 cells expressing mmPDE10A7 were resuspended in cell lysis buffer containing Tris/HCl (pH 7.5) 50 mM, NaCl 10 mM, EGTA 5 mM, EDTA (pH 8.0) 1 mM, DTT 1 mM, Protease Inhibitor Cocktail (Roche) 1 tablet per 50 ml buffer. The cell suspension was then homogenized with a Polytron (PT2100) at speed 20 for 20 seconds on ice and centrifuged at 10,000×g for 20 minutes. The supernatant was then collected and stored at −80° C.

[2] = target: T1, mmPDE10A7; test: IMAP fluorescence polarization compound inhibition assay; assay type: biochemical; details: recombinant mmPDE10A7 in sf9 cell lysate
Source text: as §1, §2
Then, the cassette was placed in 1 liter of fresh assay buffer and continued to dialyze for 2 more hours at 4° C. After the second dialysis, the cell lysate was recovered with a clean syringe and stored at −80° C.
An IMAP Assay kit (Molecular Device) was used to assess enzyme properties of mmPDE10A7. […] Both the enzyme and the substrates were diluted in the following assay buffer: Tris/HCl (pH 8.0) 50 mM, MgCl2 5 mM, 2-mercaptoethanol 4 mM, BSA 0.33 mg/ml. After incubation, the reaction was stopped by adding 20 μl of diluted (400-fold) binding reagents and was incubated for an hour at room temperature. Then, the plates were counted in Analyst GT (Molecular Device) for fluorescence polarization. The data were analyzed with SoftMax Pro. The high end (EC80 to EC100) of the linear range was served as the working enzyme concentration for compound inhibition assays.
Then, the reaction was stopped by adding 20 μl of diluted binding reagents and counted in Analyst GT for fluorescence polarization.

[3] = fluorescein labeled cAMP substrate
[4] = fluorescein labeled cGMP substrate

Km [1]	IC50 [2, 3]	IC50 [2, 4]	Structure (SMILES)	IC50 ([2]; IC50, fluorescein labeled cAMP substrate)	IC50 ([2]; IC50, fluorescein labeled cGMP substrate)
3.7 µM	–	–	Nc1nc2c(ncn2[C@@H]2O[C@@H]3COP(=O)(O)O[C@H]3[C@H]2O)c(=O)[nH]1 [cGMP, cyclic guanosine 5′ monophosphate]	–	–
–	No inhibition	No inhibition	Cc1[nH]c(=O)c(C#N)cc1-c1ccncc1 [milrinone]	–	–
–	–	–	COc1ccc(Cc2nccc3cc(OC)c(OC)cc23)cc1OC [papaverine]	44 nM	22 nM
–	No inhibition	No inhibition	CCOC(=O)C1=C[C@]2(CC)CCCN3CCc4c(n1c1ccccc41)[C@@H]32 [vinpocetine]	–	–
